# Patent publication US20130303509A1, “NAMPT INHIBITORS” (AbbVie Inc., priority 2012, published 2013)
# Tested on: PC3 cells
# Experiment: NAMPT Cell Proliferation Assay
# Type: cell-based
# Settings: Homo sapiens, PC-3, 120 h, 5 days incubation, cell viability by Cell Titer Glo
# How it was run: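 Five-day CellTiter-Glo viability readout in PC3 cells grown in RPMI/10% heat-inactivated FBS. Compounds added after overnight attachment as a 10-fold dilution series, […]. Percent inhibition fitted to sigmoidal dose-response to derive IC50.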
row,SMILES,IC50 [nM]
1,"CCCCCC(=O)N1CCC(c2ccc(NC(=O)C3CN(c4cccnn4)C3)cc2)CC1 [Example 321, N-[4-(1-hexanoylpiperidin-4-yl)phenyl]-1-(pyridazin-3-yl)azetidine-3-carboxamide]",3.21
2,"N#Cc1ccc(C(=O)N2CCC(c3ccc(NC(=O)[C@H]4CCN(c5cccnn5)C4)cc3)CC2)cc1 [Example 726, (3S)-N-{4-[1-(4-cyanobenzoyl)piperidin-4-yl]phenyl}-1-(pyridazin-3-yl)pyrrolidine-3-carboxamide]",32.7
3,"O=C(Nc1ccc(S(=O)(=O)C2CCN(C(=O)c3cccc(F)c3F)CC2)cc1)C1CN(c2cccnn2)C1 [Example 589, N-(4-{[1-(2,3-difluorobenzoyl)piperidin-4-yl]sulfonyl}phenyl)-1-(pyridazin-3-yl)azetidine-3-carboxamide]",97.9
4,"CCCN1CCC(c2ccc(NC(=O)C3CN(c4cccnc4)C3)cc2)CC1 [Example 95, N-[4-(1-propylpiperidin-4-yl)phenyl]-1-(pyridin-3-yl)azetidine-3-carboxamide]",73.9
5,"O=C(Nc1ccc(C2CCN(C(=O)CC3C[C@@H]4CC[C@H]3C4)CC2)cc1)C1CN(c2cccnc2)C1 (stereo partly drawn) [Example 100, N-(4-{1-[(1S,4R)-bicyclo[2.2.1]hept-2-ylacetyl]piperidin-4-yl}phenyl)-1-(pyridin-3-yl)azetidine-3-carboxamide]",6.13
6,"O=C(Nc1ccc(O[C@@H]2CCN(C(=O)Cc3ccc(F)cc3F)C2)cc1)C1CN(c2ccnnc2)C1 [Example 454, N-[4-({(3R)-1-[(2,4-difluorophenyl)acetyl]pyrrolidin-3-yl}oxy)phenyl]-1-(pyridazin-4-yl)azetidine-3-carboxamide]",106
7,"O=C(Nc1ccc(O[C@@H]2CCN(C(=O)Cc3cc(F)cc(F)c3)C2)cc1)C1CN(c2ccnnc2)C1 [Example 450, N-[4-({(3R)-1-[(3,5-difluorophenyl)acetyl]pyrrolidin-3-yl}oxy)phenyl]-1-(pyridazin-4-yl)azetidine-3-carboxamide]",50.9
8,"CC(C)(C)CC(=O)N1CCC(Oc2ccc(NC(=O)C3CN(c4cccnc4)C3)cc2)CC1 [Example 41, N-(4-{[1-(3,3-dimethylbutanoyl)piperidin-4-yl]oxy}phenyl)-1-(pyridin-3-yl)azetidine-3-carboxamide]",3.76
9,"O=C(Nc1ccc(O[C@@H]2CCN(C(=O)c3ccccc3Cl)C2)cc1)C1CN(c2cccnn2)C1 [Example 483, N-(4-{[(3R)-1-(2-chlorobenzoyl)pyrrolidin-3-yl]oxy}phenyl)-1-(pyridazin-3-yl)azetidine-3-carboxamide]",2.14
10,"O=C(Nc1ccc(C2CCN(C(=O)c3cscn3)CC2)cc1)C1CN(c2ccnnc2)C1 [Example 537, 1-(pyridazin-4-yl)-N-{4-[1-(1,3-thiazol-4-ylcarbonyl)piperidin-4-yl]phenyl}azetidine-3-carboxamide]",3.3
11,"Cc1ccncc1N1CC(C(=O)Nc2ccc(C3CCN(C(=O)C(C)(C)O)CC3)cc2)C1 [Example 72, N-{4-[1-(2-hydroxy-2-methylpropanoyl)piperidin-4-yl]phenyl}-1-(4-methylpyridin-3-yl)azetidine-3-carboxamide]",5.69
12,"CC(C)(O)C(=O)N1CCC(c2ccc(NC(=O)C3CN(c4cccnc4)C3)cc2)CC1 [Example 20, N-{4-[1-(2-hydroxy-2-methylpropanoyl)piperidin-4-yl]phenyl}-1-(pyridin-3-yl)azetidine-3-carboxamide]",0.28
13,"CC(C)CCC(=O)N1CCC(c2ccc(NC(=O)C3CN(c4cccnn4)C3)cc2)CC1 [Example 324, N-{4-[1-(4-methylpentanoyl)piperidin-4-yl]phenyl}-1-(pyridazin-3-yl)azetidine-3-carboxamide]",7.08
14,"Cc1ccc(C(=O)N2CC[C@@H](Oc3ccc(NC(=O)C4CN(c5cccnn5)C4)cc3)C2)s1 [Example 500, N-[4-({(3R)-1-[(5-methylthiophen-2-yl)carbonyl]pyrrolidin-3-yl}oxy)phenyl]-1-(pyridazin-3-yl)azetidine-3-carboxamide]",1.02
15,"O=C(NCC(=O)N1CCC(c2ccc(NC(=O)C3CN(c4cccnn4)C3)cc2)CC1)c1ccccc1 [Example 413, N-{4-[1-(N-benzoylglycyl)piperidin-4-yl]phenyl}-1-(pyridazin-3-yl)azetidine-3-carboxamide]",10
16,"Cc1ccc(N2CC(C(=O)Nc3ccc(C4CCN(C(=O)c5ccccc5)CC4)cc3)C2)nn1 [Example 667, N-[4-(1-benzoylpiperidin-4-yl)phenyl]-1-(6-methylpyridazin-3-yl)azetidine-3-carboxamide]",12.5
17,"CC(C)(C)C(=O)N1CCC(Oc2ccc(NC(=O)C3CN(c4ccnnc4)C3)cc2)CC1 [Example 280, N-(4-{[1-(2,2-dimethylpropanoyl)piperidin-4-yl]oxy}phenyl)-1-(pyridazin-4-yl)azetidine-3-carboxamide]",71.9
18,"CC(=O)N1CCC(C(=O)N2CCC(c3ccc(NC(=O)[C@H]4CCN(c5cccnn5)C4)cc3)CC2)CC1 [Example 716, (3S)-N-(4-{1-[(1-acetylpiperidin-4-yl)carbonyl]piperidin-4-yl}phenyl)-1-(pyridazin-3-yl)pyrrolidine-3-carboxamide]",69.2

row,SMILES,IC50 [nM]
1,"O=C(Nc1ccc(C2CCN(C(=O)c3ccccc3F)CC2)cc1)C1CN(c2ccnnc2)C1 [Example 551, N-{4-[1-(2-fluorobenzoyl)piperidin-4-yl]phenyl}-1-(pyridazin-4-yl)azetidine-3-carboxamide]",0.48
2,"CCC(=O)N1CCC(c2ccc(NC(=O)[C@H]3CCN(c4cccnn4)C3)cc2)CC1 [Example 658, (3S)-N-[4-(1-propanoylpiperidin-4-yl)phenyl]-1-(pyridazin-3-yl)pyrrolidine-3-carboxamide]",14.4
3,"O=C(Nc1ccc(C2CCN(C(=O)CC3CCCCC3)CC2)cc1)[C@H]1CCN(c2cccnn2)C1 [Example 704, (3S)-N-{4-[1-(cyclohexylacetyl)piperidin-4-yl]phenyl}-1-(pyridazin-3-yl)pyrrolidine-3-carboxamide]",5.3
4,"CC(C)(C(=O)N1CC[C@@H](Oc2ccc(NC(=O)C3CN(c4ccnnc4)C3)cc2)C1)c1ccccc1 [Example 466, N-(4-{[(3R)-1-(2-methyl-2-phenylpropanoyl)pyrrolidin-3-yl]oxy}phenyl)-1-(pyridazin-4-yl)azetidine-3-carboxamide]",8.07
5,"O=C(Nc1ccc(O[C@@H]2CCN(C(=O)c3ccccc3)C2)cc1)[C@H]1CCN(c2cccnn2)C1 [Example 774, (3S)—N-(4-{[(3R)-1-benzoylpyrrolidin-3-yl]oxy}phenyl)-1-(pyridazin-3-yl)pyrrolidine-3-carboxamide]",2.52
6,"O=C(Nc1ccc(C2CCN(C(=O)Cc3cccc(C(F)(F)F)c3)CC2)cc1)C1CN(c2ccnnc2)C1 [Example 550, 1-(pyridazin-4-yl)-N-[4-(1-{[3-(trifluoromethyl)phenyl]acetyl}piperidin-4-yl)phenyl]azetidine-3-carboxamide]",8.21
7,"CC(C)CC(=O)N1CCC(c2ccc(NC(=O)C3CN(c4ccnnc4)C3)cc2)CC1 [Example 556, N-{4-[1-(3-methylbutanoyl)piperidin-4-yl]phenyl}-1-(pyridazin-4-yl)azetidine-3-carboxamide]",5.98
8,"O=C(Nc1ccc(OC2CCN(C(=O)Cc3cc(F)cc(F)c3)CC2)cc1)C1CN(c2cccnn2)C1 [Example 239, N-[4-({1-[(3,5-difluorophenyl)acetyl]piperidin-4-yl}oxy)phenyl]-1-(pyridazin-3-yl)azetidine-3-carboxamide]",6.7
9,"O=C(Nc1ccc(C2CN(C(=O)c3ccccc3)C2)cc1)[C@H]1CCN(c2cccnn2)C1 [Example 788, (3S)-N-[4-(1-benzoylazetidin-3-yl)phenyl]-1-(pyridazin-3-yl)pyrrolidine-3-carboxamide]",7.59
10,"O=C(Nc1ccc(S(=O)(=O)C2CCN(C(=O)c3ccc(Cl)cc3Cl)CC2)cc1)C1CN(c2cccnn2)C1 [Example 590, N-(4-{[1-(2,4-dichlorobenzoyl)piperidin-4-yl]sulfonyl}phenyl)-1-(pyridazin-3-yl)azetidine-3-carboxamide]",82.2
11,"O=C(NC1CN(c2cccnn2)C1)c1ccc(C2CCN(C(=O)CCC(F)(F)F)CC2)s1 [Example 855, N-[1-(pyridazin-3-yl)azetidin-3-yl]-5-[1-(4,4,4-trifluorobutanoyl)piperidin-4-yl]thiophene-2-carboxamide]",747
12,"CC1(C(=O)N2CCC(Oc3ccc(NC(=O)C4CN(c5cccnc5)C4)cc3)CC2)CCCCC1 [Example 53, N-[4-({1-[(1-methylcyclohexyl)carbonyl]piperidin-4-yl}oxy)phenyl]-1-(pyridin-3-yl)azetidine-3-carboxamide]",3.67
13,"Cc1ccccc1C(=O)N1CCC(c2ccc(NC(=O)[C@H]3CCN(c4cccnn4)C3)cc2)CC1 [Example 652, (3S)-N-{4-[1-(2-methylbenzoyl)piperidin-4-yl]phenyl}-1-(pyridazin-3-yl)pyrrolidine-3-carboxamide]",6.14
14,"O=C(Nc1ccc(C2CCN(C(=O)C3(c4ccccc4)CC3)CC2)cc1)[C@H]1CCN(c2cccnn2)C1 [Example 702, (3S)-N-(4-{1-[(1-phenylcyclopropyl)carbonyl]piperidin-4-yl}phenyl)-1-(pyridazin-3-yl)pyrrolidine-3-carboxamide]",2.07
15,"O=C1CC[C@@H](C(=O)N2CCC(c3ccc(NC(=O)C4CN(c5cccnc5)C4)cc3)CC2)N1 [Example 114, N-{4-[1-(5-oxo-L-prolyl)piperidin-4-yl]phenyl}-1-(pyridin-3-yl)azetidine-3-carboxamide]",18.1
16,"Cc1ncccc1N1CC(C(=O)Nc2ccc(C3CCN(C(=O)CC4CCCC4)CC3)cc2)C1 [Example 162, N-{4-[1-(cyclopentylacetyl)piperidin-4-yl]phenyl}-1-(2-methylpyridin-3-yl)azetidine-3-carboxamide]",225
17,"N#Cc1cccc(C(=O)N2CCC(c3ccc(NC(=O)[C@H]4CCN(c5cccnn5)C4)cc3)CC2)c1 [Example 733, (3S)-N-{4-[1-(3-cyanobenzoyl)piperidin-4-yl]phenyl}-1-(pyridazin-3-yl)pyrrolidine-3-carboxamide]",37.5
